Where two headings read alike, the source gives them in different places.
Assays:
[1] = test system: hiPSC-CMs (iCell-Cardiomyocytes^2)
Protocol: (§1) Cells were seeded according to the instructions of the cell provider, in fibronectin-coated 48-well MEA plates (Axion Cytoview Plates, M768-tMEA-48B) at a density suited to form a monolayer (i.e., 50 K/well) and maintained in culture in a stage incubator (37°C, 5% CO2).
(§2) At least 4 h before the beginning of the baseline measurements, a full medium exchange was performed (to a final volume of 400 µL per well). Neat compounds were dissolved in 100% DMSO at a stock concentration 1000-fold the highest target concentration. […] Afterwards, these stock solutions were diluted with Maintenance medium (CDi), to 10-fold the intended concentration. The final DMSO concentration in test solutions and vehicle control was 0.1%.
(§3) Spontaneous electrical activity was recorded in hiPSC-CMs monolayers as field potentials using the Maestro Pro MEA instrument (Axion Biosystems, Atlanta, GA, United States), which allows the maintenance of accurate temperature and CO2 levels (37°C, 5% CO2). After the plate was placed in the Maestro Pro and allowed to equilibrate for about 10 min, baseline acquisition of field potential and impedance signals was initiated and lasted for 5 min each. […] As impedance measures resistance of an applied alternating current through the hiPSC-CMs monolayer, a reduction in the attachment of hiPSC-CMs to the bottom of the well due to cell death or changes in the monolayer morphology, causes a drop in the impedance signal.
The potential presence of various arrhythmic events was evaluated and noted during the data analysis.
(§4) After the acquisition of all timepoint measurements, raw data were loaded into the data analysis software Axion Cardiac Analysis Tool (V.3.2.3). […] A.csv file containing information on the FP parameters per well, per time point, was then generated and used as input to the in-house data management system (SPEcII v.3.4, Unlimit-IT, Geel, Belgium), where descriptive statistics were calculated. Summary values at different time points after compound addition are expressed as percent change from baseline and shown as mean ± standard deviation (SD).
(§5) The nonparametric Wilcoxon-Mann Whitney Test was used to compare the percent change from the baseline (Δ%) value between the group treated with the compound at a given concentration and the group treated with the DMSO at each matching time points. A two-sided test at 5% significance level was considered. […] To assess the physiological relevance of changes, a tolerance interval of DMSO experiments was calculated at each time point, for each parameter. […] TIs indicate an interval where, with a certain confidence level (1- α = 0.95), a specified proportion (p = 0.80) of percent change for DMSO data falls. The lower and upper limits based on the TI values were used as cut-offs for the interpretation of the changes. For the cytotoxicity assays, measurements of fluorescence (after background fluorescence subtraction) from wells treated with the compounds were normalized by the average value of vehicle experiments (DMSO 0.1%) to obtain a DMSO-corrected, delta/delta percent change. Experiments from each condition, as delta/delta percent, were averaged and expressed as mean ± SD. Statistical analysis was performed using a non-parametric test (Kruskal-Wallis) and each treatment condition was compared to the relative DMSO 0.1%. Differences were considered statistically significant when the p-value was smaller than 0.05.

[2] = test system: hiPSC-CMs (iCell-Cardiomyocytes^2); experiment: MEA impedance (cytotoxicity readout) in hiPSC-CMs
Protocol: as §1, §2, §3, §4, §5

O=C(O)COCCN1CCN(C(c2ccccc2)c2ccc(Cl)cc2)CC1 (centres unmarked) [Cetirizine]
BR (beating rate), % change from baseline ([1]; 0.1 µM, 2h): 2±1%
FPD (field-potential duration), % change from baseline ([1]; 0.1 µM, 2h): 3.2±0.7%
FPDc (field-potential duration corrected by beat-rate), % change from baseline ([1]; 0.1 µM, 2h): 4.1±0.9%
BR (beating rate), % change from baseline ([1]; 0.1 µM, 24h): 2±2%
FPD (field-potential duration), % change from baseline ([1]; 0.1 µM, 24h): 8.9±2.4%
FPDc (field-potential duration corrected by beat-rate), % change from baseline ([1]; 0.1 µM, 24h): 9.7±1.6%
BR (beating rate), % change from baseline ([1]; 0.1 µM, 48h): -1±3%
FPD (field-potential duration), % change from baseline ([1]; 0.1 µM, 48h): 8.3±2.5%
FPDc (field-potential duration corrected by beat-rate), % change from baseline ([1]; 0.1 µM, 48h): 8±2.9%
BR (beating rate), % change from baseline ([1]; 0.1 µM, 72h): 0±2%
FPD (field-potential duration), % change from baseline ([1]; 0.1 µM, 72h): 7.8±1.4%
FPDc (field-potential duration corrected by beat-rate), % change from baseline ([1]; 0.1 µM, 72h): 7.6±1.5%
BR (beating rate), % change from baseline ([1]; 0.1 µM, 96h): -5±2%
FPD (field-potential duration), % change from baseline ([1]; 0.1 µM, 96h): 8.9±2.9%
FPDc (field-potential duration corrected by beat-rate), % change from baseline ([1]; 0.1 µM, 96h): 7.1±3.5%
BR (beating rate), % change from baseline ([1]; 0.3 µM, 2h): 2±3%
FPD (field-potential duration), % change from baseline ([1]; 0.3 µM, 2h): 2.9±2.5%
FPDc (field-potential duration corrected by beat-rate), % change from baseline ([1]; 0.3 µM, 2h): 3.8±2.3%
BR (beating rate), % change from baseline ([1]; 0.3 µM, 24h): 2±2%
FPD (field-potential duration), % change from baseline ([1]; 0.3 µM, 24h): 12.5±1.8%
FPDc (field-potential duration corrected by beat-rate), % change from baseline ([1]; 0.3 µM, 24h): 13±1.9%
BR (beating rate), % change from baseline ([1]; 0.3 µM, 48h): -4±3%
FPD (field-potential duration), % change from baseline ([1]; 0.3 µM, 48h): 12.1±2.3%
FPDc (field-potential duration corrected by beat-rate), % change from baseline ([1]; 0.3 µM, 48h): 10.4±2.2%
BR (beating rate), % change from baseline ([1]; 0.3 µM, 72h): -4±1%
FPD (field-potential duration), % change from baseline ([1]; 0.3 µM, 72h): 9.2±4.1%
FPDc (field-potential duration corrected by beat-rate), % change from baseline ([1]; 0.3 µM, 72h): 7.7±3.7%
BR (beating rate), % change from baseline ([1]; 0.3 µM, 96h): -6±2%
FPD (field-potential duration), % change from baseline ([1]; 0.3 µM, 96h): 10.3±1.1%
FPDc (field-potential duration corrected by beat-rate), % change from baseline ([1]; 0.3 µM, 96h): 8.2±1.1%
BR (beating rate), % change from baseline ([1]; 1 µM, 2h): 3±2%
FPD (field-potential duration), % change from baseline ([1]; 1 µM, 2h): 3.3±5.6%
FPDc (field-potential duration corrected by beat-rate), % change from baseline ([1]; 1 µM, 2h): 4.5±5%
BR (beating rate), % change from baseline ([1]; 1 µM, 24h): 1±4%
FPD (field-potential duration), % change from baseline ([1]; 1 µM, 24h): 19.3±18.2%
FPDc (field-potential duration corrected by beat-rate), % change from baseline ([1]; 1 µM, 24h): 19.6±16.4%
BR (beating rate), % change from baseline ([1]; 1 µM, 48h): -4±4%
FPD (field-potential duration), % change from baseline ([1]; 1 µM, 48h): 20.8±13.7%
FPDc (field-potential duration corrected by beat-rate), % change from baseline ([1]; 1 µM, 48h): 19±15%
BR (beating rate), % change from baseline ([1]; 1 µM, 72h): -6±2%
FPD (field-potential duration), % change from baseline ([1]; 1 µM, 72h): 17.3±16.7%
FPDc (field-potential duration corrected by beat-rate), % change from baseline ([1]; 1 µM, 72h): 15.4±17.1%
BR (beating rate), % change from baseline ([1]; 1 µM, 96h): -6±5%
FPD (field-potential duration), % change from baseline ([1]; 1 µM, 96h): 19±15.6%
FPDc (field-potential duration corrected by beat-rate), % change from baseline ([1]; 1 µM, 96h): 16.5±16.6%
BR (beating rate), % change from baseline ([1]; 3 µM, 72h): -5±2%
FPD (field-potential duration), % change from baseline ([1]; 3 µM, 72h): 12.9±3.8%
FPDc (field-potential duration corrected by beat-rate), % change from baseline ([1]; 3 µM, 72h): 11.2±3%
BR (beating rate), % change from baseline ([1]; 3 µM, 96h): -5±5%
FPD (field-potential duration), % change from baseline ([1]; 3 µM, 96h): 14.4±6.3%
FPDc (field-potential duration corrected by beat-rate), % change from baseline ([1]; 3 µM, 96h): 12.1±5%
BR (beating rate), % change from baseline ([1]; 3 µM, 2h): 3±2%
FPD (field-potential duration), % change from baseline ([1]; 3 µM, 2h): 4.9±3.1%
FPDc (field-potential duration corrected by beat-rate), % change from baseline ([1]; 3 µM, 2h): 6.1±3.3%
BR (beating rate), % change from baseline ([1]; 3 µM, 24h): 1±4%
FPD (field-potential duration), % change from baseline ([1]; 3 µM, 24h): 14.6±2.3%
FPDc (field-potential duration corrected by beat-rate), % change from baseline ([1]; 3 µM, 24h): 15.2±2.8 %
BR (beating rate), % change from baseline ([1]; 3 µM, 48h): -5±2%
FPD (field-potential duration), % change from baseline ([1]; 3 µM, 48h): 14.5±3.8%
FPDc (field-potential duration corrected by beat-rate), % change from baseline ([1]; 3 µM, 48h): 12.5±3%
Imp (impedance), % change from baseline ([2]; 0.1 µM, 2h): -4±4%
Imp (impedance), % change from baseline ([2]; 0.1 µM, 24h): -8±1%
Imp (impedance), % change from baseline ([2]; 0.1 µM, 48h): -7±2%
Imp (impedance), % change from baseline ([2]; 0.1 µM, 72h): -7±3%
Imp (impedance), % change from baseline ([2]; 0.1 µM, 96h): -7±4%
Imp (impedance), % change from baseline ([2]; 0.3 µM, 2h): -3±3%
Imp (impedance), % change from baseline ([2]; 0.3 µM, 24h): -8±2%
Imp (impedance), % change from baseline ([2]; 0.3 µM, 48h): -5±4%
Imp (impedance), % change from baseline ([2]; 0.3 µM, 72h): -5±6%
Imp (impedance), % change from baseline ([2]; 0.3 µM, 96h): -5±6%
Imp (impedance), % change from baseline ([2]; 1 µM, 2h): -4±2%
Imp (impedance), % change from baseline ([2]; 1 µM, 24h): -7±5%
Imp (impedance), % change from baseline ([2]; 1 µM, 48h): -4±7%
Imp (impedance), % change from baseline ([2]; 1 µM, 72h): -5±6%
Imp (impedance), % change from baseline ([2]; 1 µM, 96h): -4±9%
Imp (impedance), % change from baseline ([2]; 3 µM, 72h): -8±7%
Imp (impedance), % change from baseline ([2]; 3 µM, 96h): -6±7%
Imp (impedance), % change from baseline ([2]; 3 µM, 2h): -3±2%
Imp (impedance), % change from baseline ([2]; 3 µM, 24h): -7±4%
Imp (impedance), % change from baseline ([2]; 3 µM, 48h): -3±6%
